# Source: paper PMC11149917, “Translational and Therapeutic Evaluation of RAS-GTP Inhibition by RMC-6236 in RAS-Driven Cancers” (Cancer Discovery, 2024)
# Where “and” joins values, the source holds several entries; their conditions need not be identical. Equal entries are not always repeated.
# Key:
# [1] = tested on: DUSP6 mRNA in KP-4 xenograft tumors; assay: In vivo PD by DUSP6 qPCR and PK/PD relationship; design: species or system mouse
# Experimental: (§1) Tumor-bearing animals were randomized and assigned into groups (n = 1–10/group). The vehicle at 10 mL/kg or RMC-6236 at indicated doses was administered via oral gavage daily, and animals were treated for 28 days, or up to 90 days if PFS was being assessed. […] For single-dose PKPD study, mice were randomized and assigned into groups (n = 3/dose/time point). A single dose of RMC-6236 was administered orally at either 3, 10, or 25 mg/kg. Blood and tissues, including the tumor, brain, colon, ear skin, and muscle, were harvested at indicated time points. Whole blood was collected in K2EDTA Microtainer tubes, incubated for 5 minutes, and snap-frozen in liquid nitrogen. The tissue was either fixed in 10% formalin or snap-frozen in liquid nitrogen for further analysis.
# (§2) RNA was extracted from at least 20 mg of tissue using an RNeasy Mini Kit (Qiagen, 74104) and a High-Throughput Tissue grinder following the manufacturer's protocol. Reverse transcription was carried out using High-Capacity cDNA Reverse Transcription Kit (ABI, 4368814) according to the manufacturer's protocol. The cDNA product was used for qPCR analysis using TaqMan Gene-Expression Master Mix (ABI, 4369016). TaqMan primer probes specific to DUSP6 (human—Hs00737962_m1, murine—Mm00518185_m1, FAM-MGB) and 18S (RNA18S1; human—Hs99999901_s1, murine—Mm03928990_g1, FAM-MGB, used as an internal control gene) were used to detect the levels from each sample in duplicates using a 10 µL final reaction volume in a 384-well clear optical reaction plate. For qPCR, Ct values of DUSP6 and 18S were obtained for analysis. DUSP6 Ct value was normalized to 18S, and then the mean relative mRNA expression levels of each group were normalized to the vehicle control group. Values were plotted as relative change in mRNA expression compared with vehicle. Means ± SEM were shown.
# (§3) Concentrations of RMC-6236 in tumor or normal tissues and percentage of DUSP6 inhibition as compared with the vehicle control from individual animals were collected and analyzed post a single dose of RMC-6236 ranging from 0.3 to 100 mg/kg (Supplementary Table S6). A 3-parameter sigmoidal exposure–response model was fitted to the data in GraphPad Prism to derive EC50 and EC90 values.
# [2] = tested on: DUSP6 mRNA in HPAC xenograft tumors; assay: In vivo PD by DUSP6 qPCR and PK/PD relationship; design: species or system mouse; conditions: for % inhibition of DUSP6 vs control: individual animals
# Experimental: as §1, §2, §3
structure (smiles),measurement,setting,value
CCn1c(-c2cc(N3CCN(C)CC3)cnc2[C@H](C)OC)c2c3cc(ccc31)-c1csc(n1)C[C@H](NC(=O)[C@H]1C[C@@H]1C)C(=O)N1CCC[C@H](N1)C(=O)OCC(C)(C)C2 [RMC-6236],DUSP6 mRNA(% normalized to control),"[1]; KP-4 (25 mg/kg x 31d), 8h",3.6%
same,DUSP6 mRNA(% normalized to control),"[1]; KP-4 (25 mg/kg x 31d), 24h",36.2%
same,DUSP6 mRNA(% normalized to control),"[1]; KP-4 (25 mg/kg), 2h",115.7%
same,DUSP6 mRNA(% normalized to control),"[1]; KP-4 (25 mg/kg), 4h",18.9%
same,DUSP6 mRNA(% normalized to control),"[1]; KP-4 (25 mg/kg), 8h",10.7%
same,DUSP6 mRNA(% normalized to control),"[1]; KP-4 (25 mg/kg), 12h",4.3%
same,DUSP6 mRNA(% normalized to control),"[1]; KP-4 (25 mg/kg), 24h",37.1%
same,DUSP6 mRNA(% normalized to control),"[1]; KP-4 (25 mg/kg), 48h",48.3%
same,% inhibition of DUSP6 vs control,"[1]; KP-4, study KP-4 #3, 25 mg/kg, 4h",83.13% and 97.7% and 98.74%
same,% inhibition of DUSP6 vs control,"[1]; KP-4, study KP-4 #3, 25 mg/kg, 8h",99.27% and 98.8% and 98.46%
same,% inhibition of DUSP6 vs control,"[1]; KP-4, study KP-4 #3, 25 mg/kg, 24h",84.47% and 92.71% and 89.79%
same,% inhibition of DUSP6 vs control,"[1]; KP-4, study KP-4 #3, 50 mg/kg, 4h",99.82% and 89.5% and 98.09%
same,% inhibition of DUSP6 vs control,"[1]; KP-4, study KP-4 #3, 50 mg/kg, 8h",99.77% and 99.81% and 99.62%
same,% inhibition of DUSP6 vs control,"[1]; KP-4, study KP-4 #3, 50 mg/kg, 24h",96.99% and 96.44% and 98.05%
same,% inhibition of DUSP6 vs control,"[1]; KP-4, study KP-4 #3, 50 mg/kg, 48h",83.3% and 81.21% and 85.91%
same,% inhibition of DUSP6 vs control,"[1]; KP-4, study KP-4 #4, 25 mg/kg, 8h",95.62% and 96.57% and 90.57%
same,% inhibition of DUSP6 vs control,"[1]; KP-4, study KP-4 #4, 25 mg/kg, 24h",87.48% and 87.9% and 94.68%
same,% inhibition of DUSP6 vs control,"[1]; KP-4, study KP-4 #4, 40 mg/kg, 8h",96.06% and 97.31% and 95.84%
same,% inhibition of DUSP6 vs control,"[1]; KP-4, study KP-4 #4, 40 mg/kg, 24h",75.38% and 93.78% and 96.21%
same,% inhibition of DUSP6 vs control,"[1]; KP-4, study KP-4 #4, 100 mg/kg, 8h",99.67% and 97.58% and 99.05%
same,% inhibition of DUSP6 vs control,"[1]; KP-4, study KP-4 #4, 100 mg/kg, 24h",98.22% and 98.9% and 97.78%
same,% inhibition of DUSP6 vs control,"[1]; KP-4, study KP-4 #4, 100 mg/kg, 48h",68.4% and 89.83% and 80.41%
same,% inhibition of DUSP6 vs control,"[1]; KP-4, study KP-4 #5, 25 mg/kg, 4h",96.1077% and 90.078% and 87.6997%
same,% inhibition of DUSP6 vs control,"[1]; KP-4, study KP-4 #5, 25 mg/kg, 8h",91.9687% and 92.3226% and 98.2581%
same,% inhibition of DUSP6 vs control,"[1]; KP-4, study KP-4 #5, 25 mg/kg, 24h",65.5692% and 78.5839% and 66.1607%
same,% inhibition of DUSP6 vs control,"[1]; KP-4, study KP-4 #6, 3 mg/kg, 8h",59.13% and 61.2% and 53.53%
same,% inhibition of DUSP6 vs control,"[1]; KP-4, study KP-4 #6, 3 mg/kg, 24h",48.26% and 46.44% and 45.31%
same,% inhibition of DUSP6 vs control,"[1]; KP-4, study KP-4 #6, 3 mg/kg, 48h",0% and 3.79%
same,% inhibition of DUSP6 vs control,"[1]; KP-4, study KP-4 #6, 10 mg/kg, 4h",74.13% and 85.85% and 59.13%
same,% inhibition of DUSP6 vs control,"[1]; KP-4, study KP-4 #6, 10 mg/kg, 8h",70.29% and 97.17% and 70.69%
same,% inhibition of DUSP6 vs control,"[1]; KP-4, study KP-4 #6, 10 mg/kg, 48h",8.03% and 13.59% and 9.61%
same,% inhibition of DUSP6 vs control,"[1]; KP-4, study KP-4 #6, 25 mg/kg, 4h",93.33% and 56.04% and 93.99%
same,% inhibition of DUSP6 vs control,"[1]; KP-4, study KP-4 #6, 25 mg/kg, 8h",85.45% and 84.94% and 97.45%
same,% inhibition of DUSP6 vs control,"[1]; KP-4, study KP-4 #6, 25 mg/kg, 12h",93.75% and 94.27% and 98.93%
same,% inhibition of DUSP6 vs control,"[1]; KP-4, study KP-4 #6, 25 mg/kg, 48h",63.92% and 39.53%
same,EC50,"[1]; Mus musculus, KP-4 xenograft tumors, read-out: EC50, inhibition of DUSP6 expression vs RMC-6236 concentration (PK/PD relationship)",454 nM
same,EC90,"[1]; Mus musculus, KP-4 xenograft tumors, read-out: EC90, inhibition of DUSP6 expression vs RMC-6236 concentration (PK/PD relationship)",2890 nM
same,% inhibition of DUSP6 vs control,"[2]; HPAC #3, 50 mg/kg, 4h",99.6% and 99.3%
same,% inhibition of DUSP6 vs control,"[2]; HPAC #3, 50 mg/kg, 8h",99.8% and 99.7%
same,% inhibition of DUSP6 vs control,"[2]; HPAC #3, 50 mg/kg, 24h",99.9% and 99.8%
same,% inhibition of DUSP6 vs control,"[2]; HPAC #3, 50 mg/kg, 48h",99.3% and 98% and 97.1%
same,% inhibition of DUSP6 vs control,"[2]; HPAC #4, 3 mg/kg, 4h",8.1% and 58% and 27.9%
same,% inhibition of DUSP6 vs control,"[2]; HPAC #4, 3 mg/kg, 8h",54.7% and 65.2% and 84.3%
same,% inhibition of DUSP6 vs control,"[2]; HPAC #4, 3 mg/kg, 24h",0% and 40.8% and 37.2%
same,% inhibition of DUSP6 vs control,"[2]; HPAC #4, 3 mg/kg, 48h",0% and 22.7% and 33.9%
same,% inhibition of DUSP6 vs control,"[2]; HPAC #4, 10 mg/kg, 4h",93.6% and 96.1% and 97.9%
same,% inhibition of DUSP6 vs control,"[2]; HPAC #4, 10 mg/kg, 8h",98.9% and 99.6% and 97.1%
same,% inhibition of DUSP6 vs control,"[2]; HPAC #4, 10 mg/kg, 24h",80.3% and 56.7% and 91.1%
same,% inhibition of DUSP6 vs control,"[2]; HPAC #4, 10 mg/kg, 48h",8.1% and 47% and 59.6%
same,% inhibition of DUSP6 vs control,"[2]; HPAC #4, 25 mg/kg, 4h",99.6% and 97.7% and 93.3%
same,% inhibition of DUSP6 vs control,"[2]; HPAC #4, 25 mg/kg, 8h",99.9% and 99.4% and 99.8%
same,% inhibition of DUSP6 vs control,"[2]; HPAC #4, 25 mg/kg, 24h",99.3% and 99.2% and 99.6%
same,% inhibition of DUSP6 vs control,"[2]; HPAC #4, 25 mg/kg, 48h",97.6% and 96.7% and 87.9%
same,% inhibition of DUSP6 vs control,"[2]; HPAC #11, 0.3 mg/kg, 4h",0% and 41.7%
same,% inhibition of DUSP6 vs control,"[2]; HPAC #11, 0.3 mg/kg, 8h",9.1% and 10.7% and 76.7%
same,% inhibition of DUSP6 vs control,"[2]; HPAC #11, 0.3 mg/kg, 24h",0%
same,% inhibition of DUSP6 vs control,"[2]; HPAC #11, 0.3 mg/kg, 48h",0%
same,% inhibition of DUSP6 vs control,"[2]; HPAC #11, 1 mg/kg, 4h",48.3% and 77.5% and 97.1%
same,% inhibition of DUSP6 vs control,"[2]; HPAC #11, 1 mg/kg, 8h",86.3% and 83.8% and 49.4%
same,% inhibition of DUSP6 vs control,"[2]; HPAC #11, 1 mg/kg, 24h",4.9% and 0% and 23.3%
same,% inhibition of DUSP6 vs control,"[2]; HPAC #11, 1 mg/kg, 48h",24.6% and 0% and 42.3%
same,EC50,"[2]; Mus musculus, HPAC, read-out: EC50, inhibition of DUSP6 expression vs RMC-6236 concentration (PK/PD relationship)",135 nM
same,EC90,"[2]; Mus musculus, HPAC, read-out: EC90, inhibition of DUSP6 expression vs RMC-6236 concentration (PK/PD relationship)",925 nM
